Reference: patent US5686495A, “Substituted hydrazinedicarboximidamides and methods of use thereof” (Cambridge NeuroScience, Inc., priority 1995, dated 1997)
Where a name gives a salt, the structure may show the parent alone. Read-outs that look alike come from different tables or passages of the source.

Legend:
[1] = system: potassium-stimulated 45Ca uptake of synaptosomes; test: Potassium-stimulated 45Ca uptake into synaptosomes; assay type: cell-based, rat
Procedure: Several compounds were also tested to determine whether the Ca^2+ dependent and independent components of glutamate release are related to the blockage of ^45 Ca uptake. Calcium uptake is one step in the cascade of events which occur in neuronal cell death from ischemia. See Bassaclough and Leach, Current Patents Ltd., 2-27. The Ca-flux protocol is as follows. Rat brain synaptosomes were prepared according to Hajos, Brain Res. 93:485 (1975). Synaptosomes were suspended in low potassium "LK" buffer (containing 3 mM KCl) at 2 mg/ml. […] After 5 seconds, the ^45 Ca flux was stopped with 0.9 ml quench solution (LK+10 mM EGTA). The solution was filtered under vacuum and the filters washed with 15 ml of quench buffer. The effect of drug is expressed as % inhibition (or block) of control potassium-stimulated ^45 Ca influx. This method is an adaptation of the method disclosed by Nachsen and Blaustein, J. Physiol. 361:251-268 (1985).

[2] = system: 3H-glutamate release from rat brain synaptosomes; test: Inhibition of K+-evoked 3H-glutamate release from synaptosomes (rapid superfusion); assay type: cell-based
Procedure: To study the release of presynaptic ^3 H-glutamate, synaptosomes from young rats were used. CD Male rats of 4 to 6 weeks (50-75 g) were used for the preparation of synaptosomes. Rats were killed by decapitation with guillotine and the skull bone was opened in the center with the pointed blade of dissection scissors. The bone is then peeled away with a bone cutter and the brain is pried with a micro spatula. The cerebellum is removed and the rest of the brain is placed in 35 ml of 0.32M Sucrose solution and homogenized in a Thomas glass teflon homogenizer C at the maximum power setting (about 450 rpm) with 16 strokes. The pestle is rinsed with 5 ml of sucrose solution and added to the homogenate. The homogenate is centrifuged for 10 min at 3500 rpm (1500 g) in a SS-34 rotor in Sorvall RC-5B. The resulting pellet (P1) is discarded and the supernatant (S1) is recentrifuged for 20 min at 8700 rpm (8500 g). The supernatant (S2) is discarded and the pellet (P2) is resuspended in 5 ml of 0.32M sucrose and hand homogenized with 4 strokes (Thomas C) and the volume was made up to 8 ml. This homogenate was layered on 20 ml of 0.8M sucrose solution in two centrifuge tubes and spun for 25 minutes at 8700 rpm (8500 g). At the end of this spin, most of the myelin stays at the interphase of 0.32M and 0.8M sucrose and mitochondria pellet as a brown pellet. The synaptosomes are dispersed in the 0.8M sucrose. Using a 10 ml pipette, the 0.8M sucrose layer is collected (without disturbing the top myelin layer or the pellet) and diluted slowly with an equal volume of chilled basal buffer, while stirring gently with a Pasteur pipette. This diluted solution is centrifuged for 10 min at 10,000 rpm (12,000 g) and the pellet is resuspended in 1.5 ml of basal buffer and hand-homogenized in a Wheaton glass-glass 7 ml homogenizer with 8 strokes.
The synaptosomal homogenate is diluted 1 ml to 10 ml with basal buffer. This dilution gives a protein concentration of 500 to 600 μg/ml. One hundred μl of this diluted prep with 50-60 μg of protein is used for each superfusion event. […] The diluted synaptosomal solution was kept on ice until the end of the experiment.
^3 H-glutamate (purchased from NEN) is stored in the refrigerator. Pipette 6 μl ([…]; 40 to 55 Ci/mmol) into a disposable test tube. Add 100 μl of diluted prep and mix gently on vortex and incubate at 30° C. for 10 min. ^3 H-glutamate is taken up by sodium-coupledglutamate transporter present in synaptosomal membranes. After 10 min, dilute the incubation mixture with 690 μl of basal buffer. This solution is then transferred in Tygon tubing that is connected to the synaptosome loading chamber. Using a syringe filler with air, the solution is forced through the Millipore SC--GF/F--Millipore SC filter sandwich. These filters retain the synaptosomes and the solution flows through.
An important component of the superfusion setup is the custom made stainless steel "General Valve" three-valve solenoid operated superfusion chamber with an outlet for the effluent. The three inlets are connected to stainless steel buffer reservoirs that contain (1) wash buffer, (2) control buffer and (3) experimental buffer which are kept under 40 psi of nitrogen gas through teflon tubing connections. The superfusion is controlled through a menu-driven program on an Apple IIe computer. See Turner, J. T. et al., Anal. Biochem. 178:8-16 (1989), and U.S. Pat. No. 4,891,185, the disclosures of which are fully incorporated by reference herein.
The superfusion chamber has a teflon bushing and a stainless steel washer fixed with the flat surface facing the filters. A GF/B filter disc is placed first in the chamber to eliminate the switching related artifacts. The synaptosome loaded sandwich is then placed facing the synaptosomes into the flow followed by RA filter, stainless steel screen and a washer with the flat side facing the screen.

[3] = Rattus norvegicus, read-out: % Uptake vs. Control
[4] = Rattus norvegicus, read-out: Inhibition of 45Ca Uptake, % Inhibition @ 10 uM (SEM)
[5] = Rattus norvegicus; read-out: Inhibition of 45Ca Uptake, IC50
[6] = Rattus norvegicus, read-out: relative level of glutamate release
[7] = 10 μM; potassium-stimulated uptake of calcium into synaptosomes
[8] = Rattus norvegicus, read-out: Inhibition of Glutamate Release (Persistent Component), % Inhibition @ 10 uM

## N=C(Nc1cccc2ccccc12)NN1CCCCC1 [N-(α-Naphthyl)-N'-(1-piperidinyl)-guanidine]
[1]; [3]
  activity at 10 µM: 131%

## CCc1cccc(NC(=NC#N)Nc2cccc3ccccc23)c1 [N-(α-Naphthyl)-N'-(m-ethylphenyl)-N"-cyano-guanidine]
[1]; [3]
  activity at 10 µM: 95%

## CC(C)c1ccc(NC(=N)Nc2ccc(C(C)C)cc2)cc1 [N,N'-Di-(4-isopropylphenyl)guanidine]
[1]; [4]
  inhibition at 10 µM: 48%
[1]; [5]
  IC50: 19 ± 7 µM

## CC(C)c1ccccc1NC(=N)Nc1cccc2ccccc12 [N-(1-naphthyl)-N'-(o-isopropylphenyl)guanidine]
[2]; [6]
  activity at 30 µM: 100%

## N-(α-Naphthyl)-N'-(4-phenylpiperidinyl)-guanidine
[1]; [7]
  % Uptake vs. Control: 79%

## N=C(Nc1ccc2c3c(cccc13)CC2)NC1C2CC3CC(C2)CC1C3 (centres unmarked) [N-(Adamantan-2-yl)-N'-(5-acenaphthyl)guanidine]
[2]; [8]
  inhibition at 10 µM: 63%
[2]; Rattus norvegicus; read-out: Inhibition of Glutamate Release (Persistent Component), IC50
  IC50: 5 µM
[1]; [4]
  inhibition at 10 µM: 69%
[1]; [5]
  IC50: 4.8 µM

## N=C(NCC12CC3CC(CC(C3)C1)C2)NCC12CC3CC(CC(C3)C1)C2 [N-N'-Bis(1-Adamantanemethyl)-guanidine]
[1]; [3]
  activity at 10 µM: 111%

## N=C(Nc1cccc2ccccc12)Nc1ccc2c3c(cccc13)CC2 [N-(5-acenaphthyl)-N'-(1-naphthyl)guanidine]
[1]; [4]
  inhibition at 10 µM: 40 ± 6%
[1]; [5]
  IC50: 16.2 ± 0.4 µM

## N=C(Nc1ccc(F)c2ccccc12)Nc1ccc2c3c(cccc13)CC2 [N-(3- and 5-Acenaphthyl)-N'-(4-Fluoronaphthyl)-Guanidine.HCl]
[2]; [8]
  inhibition at 10 µM: 85%
[2]; Rattus norvegicus, read-out: Inhibition of Glutamate Release (Persistent Component), IC50
  IC50: < 5 µM
[1]; [4]
  inhibition at 10 µM: 47%

## N=C(Nc1ccccc1I)NC1C2CC3CC(C2)CC1C3 (centres unmarked) [N-(adamantan-2-yl)-N'-(2-iodophenyl)guanidine]
[2]; [6]
  activity at 30 µM: 74%

## Cc1ccccc1NC(=N)NC1C2CC3CC(C2)CC1C3 (centres unmarked) [N-(adamantan-2-yl)-N'-(2-methylphenyl)guanidine]
[2]; [6]
  activity at 30 µM: 100%

## Cc1ccccc1NC(=N)Nc1ccccc1C [N,N'-di-(o-tolyl)guanidine]
[2]; [6]
  activity at 100 µM: 91%

## N=C(NC1CCc2ccccc21)NC1CCc2ccccc21 (centres unmarked) [N,N'-Bis(indan-1-yl)-guanidine]
[1]; [3]
  activity at 10 µM: 88%

## CC(C)(C)c1ccc(NC(=N)Nc2ccc(C(C)(C)C)cc2)cc1 [N,N'-Bis(p-tert.-butylphenyl) guanidine]
[1]; [4]
  inhibition at 10 µM: 47%

## Cc1ccccc1NC(=N)NC12CC3CC(CC(C3)C1)C2 [N-(adamantan-1-yl)-N'-(2-methylphenyl)guanidine]
[2]; [6]
  activity at 30 µM: 52%
  activity at 100 µM: 45%

## CCc1cccc(N2CCN(c3cccc(CC)c3)C2=N)c1 [N,N'-Bis(m-ethylphenyl)-2-imino-imidazolidine]
[1]; [3]
  activity at 10 µM: 101%

## N=C(Nc1ccc2c3c(cccc13)CC2)NC12CC3CC(CC(C3)C1)C2 [N-(5-acenaphthyl)-N'-(adamant-1-yl)guanidine]
[1]; [4]
  inhibition at 10 µM: 47 ± 11%
[1]; [5]
  IC50: 9.7 ± 3 µM

## CC(C)c1ccc(NC(=N)Nc2ccc3c4c(cccc24)CC3)cc1 [N-(3- and 5-Acenaphthyl)-N'-(4-isopropylphenyl)-guanidine.HCl]
[1]; [4]
  inhibition at 10 µM: 68%
[1]; [5]
  IC50: 6.5 ± 1 µM

## Cc1ccccc1NC(=N)NC1CCCCC1 [N-cyclohexyl-N'-(2-methylphenyl)guanidine]
[2]; [6]
  activity at 30 µM: 100%

## N=C(NC1CCCCC1)NN1CCCCC1 [N-(Cyclohexyl)-N'-(1-piperidinyl)-guanidine]
[1]; [3]
  activity at 10 µM: 108%

## N=C(Nc1cccc2ccccc12)NC12CC3CC(CC(C3)C1)C2 [N-(Adamantan-1-yl)-N' (α-naphthyl)guanidine]
[1]; [4]
  inhibition at 10 µM: 31%

## CC(C)c1ccccc1NC(=N)N(C)c1cccc2ccccc12 [N-(1-naphthyl)-N-methyl-N'-(o-isopropylphenyl)guanidine]
[2]; [6]
  activity at 30 µM: 95%

## N=C(NC1CCCCC1)NC12CC3CC(CC(C3)C1)C2 [N-(adamantan-1-yl)-N'-cyclohexylguanidine]
[2]; [6]
  activity at 30 µM: 120%

## CCc1cccc(NC(=N)N(C)c2cccc(CC)c2)c1 [N,N'-di-(3-ethylphenyl)-N-methylguanidine]
[2]; [6]
  activity at 30 µM: 88%

## N=C(NC1C2CC3CC(C2)CC1C3)NC12CC3CC(CC(C3)C1)C2 (centres unmarked) [N-(Adamantan-1-yl)-N'-(adamantan-2-yl)guanidine]
[1]; [4]
  inhibition at 10 µM: 49%

## CCc1cccc(N(C)C(=N)Nc2cccc3ccccc23)c1 [N-(1-naphthyl)-N'-(m-ethylphenyl)-N'-methylguanidine]
[2]; Rattus norvegicus; 30 μM; Control = 100; K+ depolarization; read-out: relative level of glutamate release
  activity at 30 µM: 76%
[2]; Rattus norvegicus; 100 μM; Control = 100; K+ depolarization; read-out: relative level of glutamate release
  activity at 100 µM: 21%

## N=C(Nc1ccc2cccc3c2c1CC3)Nc1ccc2cccc3c2c1CC3 [N,N'-Bis (3-acenaphthyl)guanidine, N,N'-Bis (3-Acenaphthyl)Guanidine Hydrobromide]
[1]; [4]
  inhibition at 10 µM: 36%
[1]; Rattus norvegicus, read-out: Inhibition of 45Ca Uptake, IC50
  IC50: 11 µM

## Cc1ccccc1CNCc1ccccc1C [Di-(o-methyl)benzyl)amine]
[2]; [6]
  activity at 30 µM: 100%

## N=C(Nc1ccccc1I)N[C@H]1C[C@H]2CC[C@@H]1C2 (relative stereo) [N-((±)-endo-2-norbornyl)-N' (2-iodophenyl)guanidine]
[2]; [6]
  activity at 30 µM: 77%

## N=C(Nc1ccccc1I)NC12CC3CC(CC(C3)C1)C2 [N-(adamantan-1-yl)-N'-(2-iodophenyl)guanidine]
[2]; [6]
  activity at 30 µM: 39%

## N=C(NN1CCCc2ccccc21)NN1CCCc2ccccc21 [N,N'-Bis(1,2,3,4-tetrahydro-1-quinolinyl)-guanidine]
[1]; [3]
  activity at 10 µM: 87%

## Cc1ccccc1N1CCCCN(c2ccccc2C)C1=N [N,N'-Bis(o-tolyl)-N,N'-butanyl(bridge)-guanidine]
[1]; [3]
  activity at 10 µM: 119%

## N=C(Nc1ccccc1I)Nc1cccc2ccccc12 [N-(α-naphthyl)-N'-(2-iodophenyl)guanidine]
[2]; [6]
  activity at 30 µM: 77%

## CCOC(=O)c1cc2cccc(NC(=N)N(C)c3cccc(CC)c3)c2o1 [N-(m-Ethylphenyl)-N'-(2-carboethoxy-7-benzofuranyl)-N-methyl guanidine]
[1]; [3]
  activity at 10 µM: 71%

## N=C(Nc1cccc2nsnc12)NC12CC3CC(CC(C3)C1)C2 [N-(Adamantan-1-yl)-N'-(4,5-benzo-2-thia-1,3-diazol-6-yl)guanidine]
[1]; [7]
  % Uptake vs. Control: 98%

## CCc1cccc(N(C)C(=N)Nc2cccc3ccc(=O)oc23)c1 [N-(8-Aminocoumarinyl)-N'-(m-ethylphenyl)-N'-methyl-guanidine]
[1]; [3]
  activity at 10 µM: 151%

## N=C(Nc1ccccc1I)Nc1ccccc1I [N,N'-di-(2-iodophenyl)guanidine]
[2]; [6]
  activity at 100 µM: 61%

## CCc1cccc(NC(=N)Nc2cccc3ccccc23)c1 [N-(3-ethylphenyl)-N'-(1-naphthyl)guanidine]
[2]; [6]
  activity at 30 µM: 59%
